Common to all, as to experiment: AK assay 384-well format, Prestwick library screening
The subject of assay [1] is E. faecium. In kind it is cell-based, Enterococcus faecium. As to conditions: 50 μM final drug concentration; for fold induction at 50 µM: Enterococcus faecium, 3 h.
For assay [2], the system named is S. aureus strain USA300-0114. In kind it is cell-based, Staphylococcus aureus. As to conditions: 50 μM final drug concentration; for fold induction at 50 µM: Staphylococcus aureus, USA300, 3 h.
The subject of assay [3] is K. pneumoniae. Type of assay: cell-based, Klebsiella pneumoniae. The settings on record: 50 μM final drug concentration; for fold induction at 50 µM: Klebsiella pneumoniae, 3 h.
For assay [4], the system named is A. baumannii strain 98-37-09. Type of assay: cell-based, Acinetobacter baumannii. As to conditions: 50 μM final drug concentration; for fold induction at 50 µM: Acinetobacter baumannii, 983709, 3 h.
Assay [5] concerns P. aeruginosa. Type of assay: cell-based, Pseudomonas aeruginosa. As to conditions: 50 μM final drug concentration; for fold induction at 50 µM: Pseudomonas aeruginosa, 3 h.
Assay [6] relates to E. cloacae. In kind it is cell-based, Enterobacter cloacae. The settings on record: 50 μM final drug concentration; for fold induction at 50 µM: Enterobacter cloacae, 3 h.
Assay [7] concerns E. coli. In kind it is cell-based, Escherichia coli. As to conditions: 50 μM final drug concentration; for fold induction at 50 µM: Escherichia coli, 3 h.
[8] abbreviates: planktonic E. faecium, 384-well, cutoff for positive-scoring molecules 3-fold increase, read-out: AK-based Prestwick Library Screening Results: E. faecium (increase in extracellular AK activity).
The mark [9] stands for this setting: planktonic S. aureus, 384-well, cutoff for positive-scoring molecules 3-fold increase, read-out: AK-based Prestwick Library Screening Results: S. aureus (increase in extracellular AK activity).
The mark [10] stands for this setting: planktonic K. pneumoniae, 384-well, cutoff for positive-scoring molecules 3-fold increase, read-out: AK-based Prestwick Library Screening Results: K. pneumoniae (increase in extracellular AK activity).
[11] abbreviates: planktonic A. baumannii, 384-well, cutoff for positive-scoring molecules 3-fold increase, read-out: AK-based Prestwick Library Screening Results: A. baumannii (increase in extracellular AK activity).
The mark [12] stands for this setting: planktonic P. aeruginosa, 384-well, cutoff for positive-scoring molecules 3-fold increase, read-out: AK-based Prestwick Library Screening Results: P. aeruginosa (increase in extracellular AK activity).
Setting [13] is: planktonic E. cloacae, 384-well, cutoff for positive-scoring molecules 3-fold increase, read-out: AK-based Prestwick Library Screening Results: E. cloacae (increase in extracellular AK activity).
Setting [14] is: planktonic E. coli, 384-well, cutoff for positive-scoring molecules 3-fold increase, read-out: AK-based Prestwick Library Screening Results: E. coli (increase in extracellular AK activity).
Where [15] appears, read: planktonic E. faecium, cutoff for positive-scoring molecules 3-fold increase, read-out: AK-based Prestwick Library Screening Results, E. faecium (increase in extracellular AK activity).
Setting [16] is: planktonic S. aureus, cutoff for positive-scoring molecules 3-fold increase, read-out: AK-based Prestwick Library Screening Results, S. aureus (increase in extracellular AK activity).
Setting [17] is: planktonic K. pneumoniae, cutoff for positive-scoring molecules 3-fold increase, read-out: AK-based Prestwick Library Screening Results, K. pneumoniae (increase in extracellular AK activity).
Where [18] appears, read: planktonic A. baumannii, cutoff for positive-scoring molecules 3-fold increase, read-out: AK-based Prestwick Library Screening Results, A. baumannii (increase in extracellular AK activity).
Where [19] appears, read: planktonic P. aeruginosa, cutoff for positive-scoring molecules 3-fold increase, read-out: AK-based Prestwick Library Screening Results, P. aeruginosa (increase in extracellular AK activity).
[20] abbreviates: planktonic E. cloacae, cutoff for positive-scoring molecules 3-fold increase, read-out: AK-based Prestwick Library Screening Results, E. cloacae (increase in extracellular AK activity).
[21] abbreviates: planktonic E. coli, cutoff for positive-scoring molecules 3-fold increase, read-out: AK-based Prestwick Library Screening Results, E. coli (increase in extracellular AK activity).
Where [22] appears, read: cutoff for positive-scoring molecules 3-fold increase.

Data on nine compounds can be found in patent US10004701B2, “Methods and compositions for treating infection” (UNIVERSITY OF ROCHESTER, priority 2012, dated 2018).

Where a name gives a salt, the structure may show the parent alone. Read-outs that look alike come from different tables or passages of the source.

As to `CCn1cc(C(=O)O)c(=O)c2cc(F)c(N3CCNCC3)cc21` [Norfloxacin], the fold induction at 50 µM in assay [1] (setting [8]) was determined as 1.5; in assay [2] (setting [9]), 1.8; in assay [3] (setting [10]), 0.8; in assay [4] (setting [11]) it was 3.1; in assay [5] (setting [12]), 31.3; in assay [6] (setting [13]), 3.1. The fold induction at 50 µM in assay [7] (setting [14]) was determined as 33.1.
As to `CCOC(=O)c1ccc(OC(=O)CCCCCN=C(N)N)cc1.CS(=O)(=O)O` [Gabexate mesilate], in assay [1] (planktonic E. faecium, positive cutoff 3-fold increase), the “AK-based Prestwick library screening result, E. faecium (fold increase in extracellular AK activity)” value was found to be 1.1. Moreover, the “AK-based Prestwick library screening result, S. aureus (fold increase in extracellular AK activity)” value in assay [2] (planktonic S. aureus, positive cutoff 3-fold increase) is 1.3. For the same compound, the “AK-based Prestwick library screening result, K. pneumoniae (fold increase in extracellular AK activity)” value in assay [3] (planktonic K. pneumoniae, positive cutoff 3-fold increase) came out at 0.9. Further, the “AK-based Prestwick library screening result, A. baumannii (fold increase in extracellular AK activity)” value in assay [4] (planktonic A. baumannii, positive cutoff 3-fold increase) came to 1.1. The “AK-based Prestwick library screening result, P. aeruginosa (fold increase in extracellular AK activity)” value in assay [5] (planktonic P. aeruginosa, positive cutoff 3-fold increase) was found to be 1.1. For the same compound, the “AK-based Prestwick library screening result, E. cloacae (fold increase in extracellular AK activity)” value in assay [6] (planktonic E. cloacae, positive cutoff 3-fold increase) came out at 1.4. For the same compound, the “AK-based Prestwick library screening result, E. coli (fold increase in extracellular AK activity)” value in assay [7] (planktonic E. coli, positive cutoff 3-fold increase) amounted to 1.1.
Regarding `CC(C(=O)O)c1ccc(C(=O)c2ccccc2)s1` (stereo not drawn) [Tiaprofenic acid], the fold induction at 50 µM is 0.8 in assay [1] (setting [15]); 0.5 in assay [2] (setting [16]); 0.5 in assay [3] (setting [17]); 0.7 in assay [4] (setting [18]); 0.6 in assay [5] (setting [19]); 0.8 in assay [6] (setting [20]). Further, in assay [7] (setting [21]), the fold induction at 50 µM worked out at 0.6.
For the compound `O=C(O)CCc1nc(-c2ccccc2)c(-c2ccccc2)o1` [Oxaprozin], the fold induction at 50 µM in assay [1] (planktonic E. faecium, positive cutoff 3-fold increase, read-out: AK-based Prestwick library screening result, E. faecium (fold increase in extracellular AK activity)) is 1.1; in assay [2] (planktonic S. aureus, positive cutoff 3-fold increase, read-out: AK-based Prestwick library screening result, S. aureus (fold increase in extracellular AK activity)), 0.5; in assay [3] (planktonic K. pneumoniae, positive cutoff 3-fold increase, read-out: AK-based Prestwick library screening result, K. pneumoniae (fold increase in extracellular AK activity)), 0.6; in assay [4] (planktonic A. baumannii, positive cutoff 3-fold increase, read-out: AK-based Prestwick library screening result, A. baumannii (fold increase in extracellular AK activity)), 0.7; in assay [5] (planktonic P. aeruginosa, positive cutoff 3-fold increase, read-out: AK-based Prestwick library screening result, P. aeruginosa (fold increase in extracellular AK activity)), 0.7; in assay [6] (planktonic E. cloacae, positive cutoff 3-fold increase, read-out: AK-based Prestwick library screening result, E. cloacae (fold increase in extracellular AK activity)) it was 0.9. Also, in assay [7] (planktonic E. coli, positive cutoff 3-fold increase, read-out: AK-based Prestwick library screening result, E. coli (fold increase in extracellular AK activity)), the fold induction at 50 µM was determined as 0.6.
Turning to `CC(C)(C)NC[C@@H](O)COc1cccc2c1CCCC2=O.Cl` [(+)-Levobunolol hydrochloride], the “AK-based Prestwick Library Screening Results, E. faecium (fold increase in extracellular AK activity)” value in assay [1] (setting [22]) worked out at 0.9. In assay [2] (setting [22]), the “AK-based Prestwick Library Screening Results, S. aureus (fold increase in extracellular AK activity)” value came out at 1.3. Also, in assay [3] (setting [22]), the “AK-based Prestwick Library Screening Results, K. pneumoniae (fold increase in extracellular AK activity)” value worked out at 0.9. Moreover, the “AK-based Prestwick Library Screening Results, A. baumannii (fold increase in extracellular AK activity)” value in assay [4] (setting [22]) came out at 0.9. Moreover, the “AK-based Prestwick Library Screening Results, P. aeruginosa (fold increase in extracellular AK activity)” value in assay [5] (setting [22]) is listed as 1.2. The “AK-based Prestwick Library Screening Results, E. cloacae (fold increase in extracellular AK activity)” value in assay [6] (setting [22]) came to 1.5. Also, the “AK-based Prestwick Library Screening Results, E. coli (fold increase in extracellular AK activity)” value in assay [7] (setting [22]) was 1.2.
For `CC(C)(C)NCC(O)COc1cccc2c1CCC(=O)N2` (stereo not drawn) [Carteolol hydrochloride], the fold induction at 50 µM came out at 1 in assay [1] (setting [15]); 1.1 in assay [2] (setting [16]); 0.8 in assay [3] (setting [17]); 1 in assay [4] (setting [18]); 1.1 in assay [5] (setting [19]); 1.1 in assay [6] (setting [20]). Further, the fold induction at 50 µM in assay [7] (setting [21]) was found to be 1.2.
Turning to `CN(C(=O)C(Cl)Cl)c1ccc(OC(=O)c2ccco2)cc1` [Diloxanide furoate], the fold induction at 50 µM in assay [1] (planktonic, cutoff for positive-scoring molecules 3-fold increase, read-out: AK-based Prestwick Library Screening Results, E. faecium (fold increase in extracellular AK activity)) is 0.8; in assay [2] (planktonic, cutoff for positive-scoring molecules 3-fold increase, read-out: AK-based Prestwick Library Screening Results, S. aureus (fold increase in extracellular AK activity)), 0.7; in assay [3] (planktonic, cutoff for positive-scoring molecules 3-fold increase, read-out: AK-based Prestwick Library Screening Results, K. pneumoniae (fold increase in extracellular AK activity)), 0.7; in assay [4] (planktonic, cutoff for positive-scoring molecules 3-fold increase, read-out: AK-based Prestwick Library Screening Results, A. baumannii (fold increase in extracellular AK activity)) it was 0.9; in assay [5] (planktonic, cutoff for positive-scoring molecules 3-fold increase, read-out: AK-based Prestwick Library Screening Results, P. aeruginosa (fold increase in extracellular AK activity)), 1; in assay [6] (planktonic, cutoff for positive-scoring molecules 3-fold increase, read-out: AK-based Prestwick Library Screening Results, E. cloacae (fold increase in extracellular AK activity)) it was 1.2. In addition, the fold induction at 50 µM in assay [7] (planktonic, cutoff for positive-scoring molecules 3-fold increase, read-out: AK-based Prestwick Library Screening Results, E. coli (fold increase in extracellular AK activity)) was found to be 1.
For `CCN1CCN(C(=O)N[C@@H](C(=O)N[C@@H]2C(=O)N3C(C(=O)O)=C(CSc4nnnn4C)CS[C@H]23)c2ccc(O)cc2)C(=O)C1=O` [Cefoperazone dihydrate], the fold induction at 50 µM in assay [1] (setting [8]) is 0.9; in assay [2] (setting [9]), 0.7; in assay [3] (setting [10]), 2.1; in assay [4] (setting [11]), 0.7; in assay [5] (setting [12]), 5.2; in assay [6] (setting [13]), 12. The fold induction at 50 µM in assay [7] (setting [14]) is 16.5.
With `CCCCNC(=O)NS(=O)(=O)c1ccc(C)cc1` [Tolbutamide], the fold induction at 50 µM in assay [1] (384-well format, cutoff for positive-scoring molecules 3-fold increase, read-out: AK-based Prestwick Library Screening Results, E. faecium (increase in extracellular AK activity)) worked out at 1; in assay [2] (384-well format, cutoff for positive-scoring molecules 3-fold increase, read-out: AK-based Prestwick Library Screening Results, S. aureus (increase in extracellular AK activity)), 0.7; in assay [3] (384-well format, cutoff for positive-scoring molecules 3-fold increase, read-out: AK-based Prestwick Library Screening Results, K. pneumoniae (increase in extracellular AK activity)), 0.8; in assay [4] (384-well format, cutoff for positive-scoring molecules 3-fold increase, read-out: AK-based Prestwick Library Screening Results, A. baumannii (increase in extracellular AK activity)) it was 0.9; in assay [5] (384-well format, cutoff for positive-scoring molecules 3-fold increase, read-out: AK-based Prestwick Library Screening Results, P. aeruginosa (increase in extracellular AK activity)), 0.9; in assay [6] (384-well format, cutoff for positive-scoring molecules 3-fold increase, read-out: AK-based Prestwick Library Screening Results, E. cloacae (increase in extracellular AK activity)) it was 1. In assay [7] (384-well format, cutoff for positive-scoring molecules 3-fold increase, read-out: AK-based Prestwick Library Screening Results, E. coli (increase in extracellular AK activity)), the fold induction at 50 µM was 0.8.
